Results published in patent publication US10239843B2 (CANCER RESEARCH TECHNOLOGY LIMITED, priority 2014, dated 2019).
Read-outs that look alike come from different tables or passages of the source.

Assays:
Human Full Length PARG = Human Full Length PARG (Homo sapiens (Human), UniProt Q86W56); assay: PARG enzyme assay (TR-FRET); type: biochemical; settings: read-out: PARG Biochem IC50 Geomean
PARG in HeLa cell line = assay: PARG cell assay (PAR chain immunofluorescence after MMS); type: cell-based; settings: HeLa cells, MMS 50 μg/mL, read-out: PARG Cell IC50 Geomean
Protocol: This method is based on the detection of endogenous levels of poly (ADP) ribose chains present in the nucleus of HeLa cell line using indirect immunofluorescence. MMS stimulation increases PAR chains for up to 25 mins. After that point, PARG is active and breaks down the PAR chains, until by one hour after stimulation no PAR chains are detectable. Inhibition of PARG maintains PAR chains.
Briefly, following compound treatment and treatment with the DNA damaging agent methylmethanesulfonate (MMS), the cell monolayer is fixed, then permeabilised and incubated with a mouse monoclonal antibody raised against multimers of poly(ADP) ribose.
At the end of the 1 h dosing period, MMS was added to duplicates at a final concentration of 50 μg/mL, for a further hour.
Media was tipped off and the cells fixed with 50 μL ice-cold 95% MetOH/PBS for 15 mins at −20° C. Following a PBS wash, 50 μL PBS/0.1% Triton was added to the cells for 20 mins. Following another PBS wash, anti-PAR antibody (Calbiochem AM80) was diluted 1:4000 in a buffer (PBS+0.5% FBS+0.05% Tween20) and added to the cells and incubated overnight at 4° C.
Cells were washed three times with PBS and the plate sealed with a light-proof seal.

Human Full Length PARG, sequence (Q86W56 whole entry): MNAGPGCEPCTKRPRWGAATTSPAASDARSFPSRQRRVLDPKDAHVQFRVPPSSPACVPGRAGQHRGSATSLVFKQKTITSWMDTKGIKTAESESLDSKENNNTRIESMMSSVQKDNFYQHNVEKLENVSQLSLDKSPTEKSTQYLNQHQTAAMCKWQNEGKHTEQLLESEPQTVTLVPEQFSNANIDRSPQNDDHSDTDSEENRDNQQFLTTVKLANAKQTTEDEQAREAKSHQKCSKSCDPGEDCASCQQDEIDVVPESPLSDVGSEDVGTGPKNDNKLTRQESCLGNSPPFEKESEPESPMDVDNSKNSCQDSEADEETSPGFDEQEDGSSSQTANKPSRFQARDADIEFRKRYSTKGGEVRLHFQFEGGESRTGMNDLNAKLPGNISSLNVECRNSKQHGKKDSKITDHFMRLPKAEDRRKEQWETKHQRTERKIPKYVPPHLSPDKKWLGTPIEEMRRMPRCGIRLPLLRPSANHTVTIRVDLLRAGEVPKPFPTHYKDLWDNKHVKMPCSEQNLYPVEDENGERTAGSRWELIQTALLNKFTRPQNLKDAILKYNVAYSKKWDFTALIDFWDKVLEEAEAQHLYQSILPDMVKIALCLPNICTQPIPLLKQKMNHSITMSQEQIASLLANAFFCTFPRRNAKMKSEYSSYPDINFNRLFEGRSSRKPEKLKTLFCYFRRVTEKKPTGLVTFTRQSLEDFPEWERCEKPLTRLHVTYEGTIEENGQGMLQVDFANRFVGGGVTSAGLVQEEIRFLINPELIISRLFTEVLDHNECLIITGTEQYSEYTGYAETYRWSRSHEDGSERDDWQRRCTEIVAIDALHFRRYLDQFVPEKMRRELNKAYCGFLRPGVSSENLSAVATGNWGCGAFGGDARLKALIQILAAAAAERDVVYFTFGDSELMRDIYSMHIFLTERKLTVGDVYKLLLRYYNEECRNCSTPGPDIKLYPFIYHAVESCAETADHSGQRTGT

SMILES	IC50 (Human Full Length PARG)	IC50 (PARG in HeLa cell line; Homo sapiens)	IC50 (PARG in HeLa cell line)
Cc1nc(C)c(Cn2c(=O)n(C)c(=O)c3cc(S(=O)(=O)NC4CC4)ccc32)s1 [Example 201]	190 nM	224 nM	–
Cc1nc(C)c(Cn2c(=O)n(C)c(=O)c3cc(S(=O)(=O)NC4(C#N)CC4)ccc32)s1 [Example 204]	118 nM	646 nM	–
Cn1c(=O)n(Cc2cnc(NC(=O)OC(C)(C)C)s2)c(=O)c2cc(S(=O)(=O)NC3(C)CC3)ccc21 [Example 214]	411 nM	–	3470 nM
CN(C)CCn1c(=O)n(Cc2cnn(C)c2)c(=O)c2cc(S(=O)(=O)NC3(C)CC3)ccc21 [Example 235]	224 nM	–	314 nM
CN(C)CCCn1c(=O)n(Cc2cnn(C)c2)c(=O)c2cc(S(=O)(=O)NC3(C)CC3)ccc21 [Example 237]	232 nM	285 nM	–
CN1CCCCC1Cn1c(=O)n(Cc2cnn(C)c2)c(=O)c2cc(S(=O)(=O)NC3(C)CC3)ccc21 (centres unmarked) [Example 238]	158 nM	220 nM	–
COCCCn1c(=O)n(Cc2cnn(C)c2)c(=O)c2cc(S(=O)(=O)NC3(C)CC3)ccc21 [Example 239]	209 nM	–	127 nM
Cc1cc(Cn2c(=O)c3cc(S(=O)(=O)NC4(C)CC4)ccc3n(Cc3noc(C)n3)c2=O)on1 [Example 243]	312 nM	221 nM	–
CNCCCn1c(=O)n(Cc2cc(C)no2)c(=O)c2cc(S(=O)(=O)NC3(C)CC3)ccc21 [Example 250]	323 nM	328 nM	–
Cn1cc(Cn2c(=O)c3cc(S(=O)(=O)NC4(C)CC4)ccc3n(CC3CCCO3)c2=O)cn1 (centres unmarked) [Example 258]	169 nM	131 nM	–
Cn1cc(Cn2c(=O)c3cc(S(=O)(=O)NC4(C)CC4)ccc3n(CC3CCOC3)c2=O)cn1 (centres unmarked) [Example 259]	108 nM	108 nM	–
COCCn1c(=O)n(Cc2cnn(C)c2)c(=O)c2cc(S(=O)(=O)NC3(C)CC3)ccc21 [Example 270]	128 nM	102 nM	–
Cn1cc(Cn2c(=O)c3cc(S(=O)(=O)NC4(C)CC4)ccc3n(CCN3CCOCC3)c2=O)cn1 [Example 271]	97 nM	–	161 nM
Cc1cc(Cn2c(=O)c3cc(S(=O)(=O)NC4(C)CC4)ccc3n(CC3CCCCN3C)c2=O)on1 (centres unmarked) [Example 275]	333 nM	304 nM	–
Cc1cc(Cn2c(=O)c3cc(S(=O)(=O)NC4(C)CC4)ccc3n(CCN3CCOCC3)c2=O)on1 [Example 276]	255 nM	536 nM	–
Cc1cc(Cn2c(=O)c3cc(S(=O)(=O)NC4(C)CC4)ccc3n(CCC(N)=O)c2=O)on1 [Example 277]	432 nM	5760 nM	–
Cn1cc(Cn2c(=O)c3cc(S(=O)(=O)NC4(C)CC4)ccc3n(CC3CCCC3)c2=O)cn1 [Example 279]	168 nM	51 nM	–
Cn1cc(Cn2c(=O)c3cc(S(=O)(=O)NC4(C)CC4)ccc3n(CC3CCCCC3)c2=O)cn1 [Example 280]	177 nM	103 nM	–
Cn1cc(Cn2c(=O)c3cc(S(=O)(=O)NC4(C)CC4)ccc3n(CC3CCC3)c2=O)cn1 [Example 281]	76 nM	44 nM	–
Cc1cc(Cn2c(=O)c3cc(S(=O)(=O)NC4(C)CC4)ccc3n(CC3CCC3)c2=O)on1 [Example 288]	175 nM	–	79 nM
Cc1cc(Cn2c(=O)c3cc(S(=O)(=O)NC4(C)CC4)ccc3n(CC3CCCCC3)c2=O)on1 [Example 290]	497 nM	260 nM	–
CC(C)Cn1c(=O)n(Cc2cnn(C)c2)c(=O)c2cc(S(=O)(=O)NC3(C)CC3)ccc21 [Example 295]	70 nM	85 nM	–
Cn1cc(Cn2c(=O)c3cc(S(=O)(=O)NC4(C)CC4)ccc3n(CC3COC3)c2=O)cn1 [Example 297]	69 nM	272 nM	–
CCn1c(=O)n(Cc2cc(C)no2)c(=O)c2cc(S(=O)(=O)NC3(C)CC3)ccc21 [Example 304]	329 nM	113 nM	–
Cc1cc(Cn2c(=O)c3cc(S(=O)(=O)NC4(C)CC4)ccc3n(CC3COC3)c2=O)on1 [Example 305]	340 nM	–	323 nM
Cc1cc(Cn2nc(NC3CCOCC3)c3ccc(S(=O)(=O)NC4(C)CC4)cc3c2=O)on1 [Example 306]	367 nM	–	471 nM

The remaining molecules from weak to strong by IC50 (Human Full Length PARG), led by results:

IC50 (Human Full Length PARG)	IC50 (PARG in HeLa cell line; Homo sapiens)	IC50 (PARG in HeLa cell line)	SMILES
473 nM	787 nM	–	Cc1cc(Cn2c(=O)n(C)c(=O)c3cc(S(=O)(=O)NC4(C)CC4)c(F)cc32)n(C)n1 [Example 213]
469 nM	431 nM	–	Cc1cc(Cn2c(=O)c3cc(S(=O)(=O)NC4(C)CC4)ccc3n(CCN(C)C)c2=O)on1 [Example 246]
446 nM	1470 nM	–	Cc1cc(Cn2c(=O)c3cc(S(=O)(=O)NC4(C#N)CC4)ccc3n(C)c2=O)on1 [Example 229]
418 nM	6480 nM	–	CN(C)C(=O)Cn1c(=O)n(Cc2cnn(C)c2)c(=O)c2cc(S(=O)(=O)NC3(C)CC3)ccc21 [Example 265]
404 nM	310 nM	–	Cc1cc(Cn2c(=O)c3cc(S(=O)(=O)NC4(C)CC4)ccc3n(CCCN(C)C)c2=O)on1 [Example 247]
402 nM	315 nM	–	Cc1cc(Cn2c(=O)c3cc(S(=O)(=O)NC4(C)CC4)ccc3n(CC3CCCN3C)c2=O)on1 (centres unmarked) [Example 249]
392 nM	–	178 nM	COCCCn1c(=O)n(Cc2cc(C)no2)c(=O)c2cc(S(=O)(=O)NC3(C)CC3)ccc21 [Example 251]
391 nM	297 nM	–	Cc1cc(Cn2c(=O)c3cc(S(=O)(=O)NC4(C)CC4)ccc3n(Cc3nc(C)no3)c2=O)on1 [Example 252]
376 nM	2020 nM	–	Cc1cc(Cn2nc(NCCN(C)C)c3ccc(S(=O)(=O)NC4(C)CC4)cc3c2=O)on1 [Example 253]
365 nM	529 nM	–	Cn1c(=O)n(Cc2cnn(CC#N)c2)c(=O)c2cc(S(=O)(=O)NC3(C)CC3)ccc21 [Example 217]
356 nM	–	15200 nM	Cc1cc(Cn2c(=O)[nH]c3ccc(S(=O)(=O)NC4(C#N)CC4)cc3c2=O)on1 [Example 228, N-(1-Cyanocyclopropyl)-3-[(3-methylisoxazol-5-yl)methyl]-2,4-dioxo-1H-quinazoline-6-sulfonamide]
341 nM	221 nM	–	CC(C)n1c(=O)n(Cc2cnn(C)c2)c(=O)c2cc(S(=O)(=O)NC3(C)CC3)ccc21 [Example 292]
317 nM	467 nM	–	Cn1cc(Cn2c(=O)c3cc(S(=O)(=O)NC4(C)CC4)ccc3n(CCN3CCCC3)c2=O)cn1 [Example 272]
296 nM	–	214 nM	Cc1cc(Cn2c(=O)c3cc(S(=O)(=O)NC4(C)CC4)ccc3n(CC3CCCCO3)c2=O)on1 (centres unmarked) [Example 266]
291 nM	14500 nM	–	Cn1cc(Cn2c(=O)c3cc(S(=O)(=O)NC4(C)CC4)ccc3n(CCC(N)=O)c2=O)cn1 [Example 273]
280 nM	–	129 nM	Cc1cc(Cn2c(=O)c3cc(S(=O)(=O)NC4(C)CC4)ccc3n(CC3CCCC3)c2=O)on1 [Example 289]
273 nM	481 nM	–	Cc1ncc(Cn2c(=O)[nH]c3ccc(S(=O)(=O)NC4(C)CC4)cc3c2=O)s1 [Example 220, N-(1-Methylcyclopropyl)-3-[(2-methylthiazol-5-yl)methyl]-2,4-dioxo-1H-quinazoline-6-sulfonamide]
256 nM	187 nM	–	Cn1cc(Cn2c(=O)c3cc(S(=O)(=O)NC4(C)CC4)ccc3n(CCCOC(F)(F)F)c2=O)cn1 [Example 264]
237 nM	–	166 nM	COCCn1c(=O)n(Cc2cc(C)no2)c(=O)c2cc(S(=O)(=O)NC3(C)CC3)ccc21 [Example 274]
234 nM	–	248 nM	Cc1cc(Cn2c(=O)c3cc(S(=O)(=O)NC4(C)CC4)ccc3n(CC3CCCO3)c2=O)on1 (centres unmarked) [Example 267]
127 nM	–	213 nM	Cc1cc(Cn2c(=O)c3cc(S(=O)(=O)NC4(C)CC4)ccc3n(Cc3cc(C(F)(F)F)nn3C)c2=O)on1 [Example 230]
111 nM	217 nM	–	Cc1cc(Cn2c(=O)c3cc(S(=O)(=O)NC4(C)CC4)ccc3n(CC3CCOC3)c2=O)on1 (centres unmarked) [Example 268]
103 nM	98 nM	–	Cn1cc(Cn2c(=O)c3cc(S(=O)(=O)NC4(C)CC4)ccc3n(CC3CCCCO3)c2=O)cn1 (centres unmarked) [Example 257]
73 nM	70 nM	–	Cn1cc(Cn2c(=O)c3cc(S(=O)(=O)NC4(C)CC4)ccc3n(CCC3CC3)c2=O)cn1 [Example 296]
57 nM	98 nM	–	Cn1cc(Cn2c(=O)c3cc(S(=O)(=O)NC4(C)CC4)ccc3n(CC3CCOCC3)c2=O)cn1 [Example 269]
55 nM	47 nM	–	Cc1ncc(Cn2c(=O)c3cc(S(=O)(=O)NC4(C)CC4)ccc3n(Cc3cc(C(F)(F)F)nn3C)c2=O)s1 [Example 231]
47 nM	226 nM	–	Cn1cc(Cn2c(=O)c3cc(S(=O)(=O)NC4(C)CC4)ccc3n(CC3(C)COC3)c2=O)cn1 [Example 294]
38 nM	–	116 nM	Cc1cc(Cn2c(=O)c3cc(S(=O)(=O)NC4(C)CC4)ccc3n(Cc3cc(C)nn3C)c2=O)on1 [Example 207]
36 nM	69 nM	–	Cc1cc(Cn2c(=O)c3cc(S(=O)(=O)NC4(C)CC4)ccc3n(Cc3cc(C)no3)c2=O)on1 [Example 208]
